Results: US10934351B2, “Cancer stem cell-specific molecule” (CHUGAI SEIYAKU KABUSHIKI KAISHA, priority 2011, dated 2021)

Legend:
[1] = test system: Lgr5-positive large intestine CSCs; experiment: Cell proliferation / chemosensitivity assay (Cell Counting Kit-8), adherent CSCs; type: cell-based, human
Description: (§1) Floating and adherent CSCs were plated at about 100 and 1×10^4 cells/well in 96-well plates, respectively. On days 0 and 3, viable cell counts were determined by the Cell Counting Kit-8 Assay (Doujindo) according to the manufacturer's protocol. Average absorbance on day 0 was taken as 100%. For chemosensitivity assay, floating and adherent CSCs were plated at about 100 and 1×10^4 cells/well in 96-well plates, respectively. […] After three days of culture in the presence of the agents, the Cell Counting Kit-8 was added to the cells. The average absorbance of cells exposed to DMSO or medium alone was taken as 100%. All experiments were performed in triplicate.

[2] = test system: Lgr5-positive large intestine CSCs; experiment: Change in Lgr5 expression of Lgr5-positive CSCs after chemotherapeutic treatment (flow cytometry / immunocytochemistry); type: cell-based, human; settings: for Lgr5 state of drug-resistant cells arising from Lgr5-positive CSCs: three-day exposure, 10 μg/ml (FIGS. 11, 32, 25)
Description: Large intestine CSCs were incubated with mouse anti-human Lgr5 antibody (2T15E-2) and then with […] rat anti-mouse IgG antibody (Invitrogen) to stain Lgr5. The aldehyde dehydrogenase activity was measured using the AldeFluor Kit (Stemcell Technologies). Mouse cells were discriminated from human large intestine CSCs by staining with anti-mouse MHC class I antibody (Abcam), and PE- or APC-labeled goat […] IgG2a antibody (BioLegend). Dead cells were also removed using the 7-AAD Viability Dye (Beckman Coulter).
In addition, to assess whether Lgr5-negative large intestine CSCs undergo a transition into an Lgr5-positive state, the present inventors cultured adherently Lgr5-negative large intestine CSCs prepared via irinotecan treatment again in a serum-free stem cell culture medium. […] On the other hand, when Lgr5-positive adherent large intestine CSCs were cultured in an ultra-low adherent plate, the present inventors observed that some of the cells halted their growth and formed a spheroid-like structure and that the Lgr5 mRNA level was very low (FIGS. 12 and 33). The transition from the Lgr5-positive to Lgr5-negative state (and the reverse) was also confirmed by observations using a single cell in culture. […]
Using a stem cell medium, Lgr5-positive adherent cells were seeded at 3×10^5 cells/well in a 6-well plate (BD, Cat. No. 353046). […] After three-day culture, irinotecan-resistant cells were detected. […]
FITC-labeled mouse mAb to human CD326 (EpCAM), PE-labeled mouse mAb to human CD133/1 (AC133), PE-labeled mouse mAb to human CD44, PE-labeled mouse mAb to human CD166, PE-labeled mouse mAb to human CD24, PE-labeled mouse mAb to human CD26, or PE-labeled mouse mAb to human CD29. […] The ALDH activity was detected using AldeFluor Kit according to the procedure recommended by the manufacturer. […] Cells negative for 7-AAD Viability Dye were analyzed for cancer stem cell markers.

[3] = test system: Lgr5-negative large intestine CSCs; experiment: Cell proliferation / chemosensitivity assay (Cell Counting Kit-8), Lgr5-negative CSCs; type: cell-based, human; settings: for proliferation and survival of Lgr5-negative large intestine CSCs: 10 μg/ml, three days (FIGS. 10 and 24); for percentage of viable cells relative to non-treated control cells: Lgr5-negative CSCs (PLR59 and PLR123), three days, concentration series (FIG. 47)
Description: as §1

[4] = test system: tumors derived from Lgr5-positive CSCs (PLR123); experiment: Irinotecan treatment of NOG mice bearing tumors derived from Lgr5-positive CSCs; type: in vivo
Description: Mice bearing tumors derived from Lgr5-positive CSCs (PLR123) were treated with irinotecan, and their tumors were observed. Irinotecan or vehicle was administered to mice at days 12, 15, and 18 after tumor grafting. Scale bar represents 25 μm.
FIG. 55 Irinotecan was administered at a dose of 120 mg/kg/day to NOG mice at days 12, 15, and 18 after grafting tumors derived from Lgr5-positive CSCs (PLR123). This figure is a graph showing tumor volumes in control mice administered with vehicle (closed diamond) and mice administered with irinotecan (closed square or triangle). Each value represents mean+standard deviation.
FIG. 56 is a graph showing the numbers of Lgr5-positive and HLA-DMA-positive cells in xenograft tumor tissues. Thin sections of tissues were treated with Lgr5 antibody and HLA-DMA antibody, and then the numbers of Lgr5-positive and HLA-DMA-positive cells were measured. Values represent the total numbers of cells counted for respective groups (n=3).
To probe the possibility of in vivo transition to a growth inhibitor-resistant state, irinotecan was administered at the maximum tolerated dose (MTD) (120 mg/kg) into the peritoneal cavities of NOG mice bearing tumors derived from Lgr5-positive CSCs. […] By contrast, in vehicle-treated control mice, about one third of cancer cells were positive for Lgr5 in both ductal and budding areas (FIG. 54). Both Lgr5-positive cells and HLA-DMA-positive and Lgr5-negative cells were positive for EREG, and were identified to be CSCs (FIG. 54). After irinotecan treatment, Lgr5-positive cells appeared again (FIG. 54).

[5] = test system: irinotecan-non-treated PLR123; experiment: Flow cytometry (FCM) binding activity of commercially available antibodies to cell-surface antigens; design: species or system human; settings: with antibody
Description: (§2) The present inventors tested whether an anti-tumor effect can be expected with target therapy using a membrane protein expressed at a high level as the target in irinotecan-treated or non-treated PLR59 and PLR123. Commercially available antibodies shown in Table 12 were assessed by flow cytometry (FCM) for the binding activity to antigens expressed on the cell surface of irinotecan-treated or non-treated PLR59 or PLR123.

[6] = test system: irinotecan-non-treated PLR59; experiment: as above; design: species or system human; settings: with antibody
Description: as §2

[7] = test system: irinotecan-non-treated PLR123; experiment: Internalization activity / anti-tumor effect with Mab-ZAP or Rat-ZAP (CellTiter-Glo); type: cell-based, human; settings: with Mab-ZAP or Rat-ZAP 1 μg/ml, 72 hours
Description: (§3) Mab-ZAP and Rat-ZAP are anti-mouse IgG antibody and anti-rat IgG antibody, respectively, conjugated with saporin, a toxin that inhibits protein synthesis (Advanced Targeting Systems). To assess the activity of internalization into irinotecan-non-treated cells, PLR59 and PLR123 cells were seeded at a cell density of 30000 cells/80 μl/well to respective wells of a 96-well plate. Following day, each antibody solution was added at a final concentration of 0.01, 0.1, or 1 μg/ml to the respective wells. Then, Mab-ZAP or Rat-ZAP was added at a final concentration 1 μg/ml to the respective wells, and the plate was incubated at 37° C. for 72 hours in a CO2 incubator. To assess the activity of internalization into irinotecan-treated cells, PLR59 and PLR123 cells were seeded in a 96-well plate, and irinotecan was added at a final concentration of 15 μM to each well. The plate was incubated at 37° C. for 72 hours in a CO2 incubator. Various antibodies were assessed for the activity of internalization to cells cultured as described above in the presence or absence of irinotecan. For assay, the various antibodies were each assessed for the internalization activity into cells contained in each well where the medium was replaced with the same irinotecan-free medium as used for irinotecan-non-treated cells. Seventy-two hours after addition of antibodies and Mab-ZAP or Rat-ZAP, 10 μl of 3% SDS (Nacalai Tesque) was added to each well of the plate. The cells in the plate were lysed thoroughly by stirring the plate using a plate mixer. Then, 100 μl of CellTiter-Glo™ Luminescent Cell Viability Assay (Promega) was added to each well. The mixture in each well was assayed to determine its luminescent signal. […] In Table 14, symbols, −, +, ++, and +++, represent relative values for the internalization activity when a test antibody was assayed at a concentration of […]. […] Symbols, −, +, ++, and +++, indicate that the relative value is less than 5%, 5% or more and less than 15%, 15% or more and less than 25%, and 25% or more, respectively.

[8] = test system: irinotecan-non-treated PLR59; experiment: as above; type: cell-based, human; settings: with Mab-ZAP or Rat-ZAP 1 μg/ml, 72 hours
Description: as §3

[9] = 10 μg/ml, three days (FIGS. 10 and 24)
[10] = 120 mg/kg irinotecan (FIGS. 54 and 56)

## O=c1[nH]cc(F)c(=O)[nH]1 [5-FU, fluorouracil]
[1]; [9]
  proliferation of Lgr5-positive large intestine CSCs: significantly inhibited
[2]
  Lgr5 state of drug-resistant cells arising from Lgr5-positive CSCs: negative for Lgr5
[3]
  proliferation and survival of Lgr5-negative large intestine CSCs: did not affect
  percentage of viable cells relative to non-treated control cells: fully resistant

## CCc1c2c(nc3ccc(OC(=O)N4CCC(N5CCCCC5)CC4)cc13)-c1cc3c(c(=O)n1C2)COC(=O)[C@]3(O)CC [irinotecan]
[1]; [9]
  proliferation of Lgr5-positive large intestine CSCs: significantly inhibited
[2]; single cells cultured in multi-well plate, irinotecan treatment, within three days (FIG. 49, Table 5)
  transition of single Lgr5-positive cells into the Lgr5-negative state: underwent a transition into the Lgr5-negative state
[2]
  Lgr5 state of drug-resistant cells arising from Lgr5-positive CSCs: negative for Lgr5
[4]; 120 mg/kg (MTD) into the peritoneal cavities, days 12, 15, 18 after grafting (FIG. 55)
  tumor growth: inhibited almost completely
[4]; [10]
  Lgr5-positive cells in tumor: dramatic decrease
  number of Lgr5-negative and HLA-DMA-positive cells in tumor: increased significantly
[3]
  proliferation and survival of Lgr5-negative large intestine CSCs: did not affect
  percentage of viable cells relative to non-treated control cells: fully resistant

## COc1cc(O)cc(O)c1C(=O)/C=C/c1ccccc1 [cardamonin]
[1]; 50 μM, three days of culture, Lgr5-positive CSCs (FIGS. 8 and 22)
  viable cell count: 70%
[3]; 50 μM, three days of culture, Lgr5-negative CSCs (FIGS. 8 and 22)
  viable cell count: about 50%

## Cc1cc([N+](=O)[O-])ccc1NS(=O)(=O)c1cc(Cl)ccc1Cl [FH535]
[1]; 50 μM, three days of culture, PLR59 and PLR123 (FIGS. 8 and 22)
  proliferation of Lgr5-positive large intestine CSCs: significantly reduced
[3]; 50 μM, three days of culture (FIGS. 8 and 22)
  proliferation of Lgr5-negative large intestine CSCs: had no effect

B1: CD70 (protein, listed as Homo sapiens)
chain: MPEEGSGCSVRRRPYGCVLRAALVPLVAGLVICLVVCIQRFAQAQQQLPLESLGWDVAELQLNHTGPQQDPRLYWQGGPALGRSFLHGPELDKGQLRIHRDGIYMVHIQVTLAICSSTTASRHHPTTLAVGICSPASRSISLLRLSFHQGCTIASQRLTPLARGDTLCTNLTGTLLPSRNTDETFFGVQWVRP
[5]
  binding activity by flow cytometry (FCM), Antibody +: 1843
[6]
  binding activity by flow cytometry (FCM), Antibody +: 1177
[7]
  internalization activity level: +++ (25% or more)
[8]
  internalization activity level: +++ (25% or more)

B2: EDAR (protein, listed as Homo sapiens)
chain: MAHVGDCTQTPWLPVLVVSLMCSARAEYSNCGENEYYNQTTGLCQECPPCGPGEEPYLSCGYGTKDEDYGCVPCPAEKFSKGGYQICRRHKDCEGFFRATVLTPGDMENDAECGPCLPGYYMLENRPRNIYGMVCYSCLLAPPNTKECVGATSGASANFPGTSGSSTLSPFQHAHKELSGQGHLATALIIAMSTIFIMAIAIVLIIMFYILKTKPSAPACCTSHPGKSVEAQVSKDEEKKEAPDNVVMFSEKDEFEKLTATPAKPTKSENDASSENEQLLSRSVDSDEEPAPDKQGSPELCLLSLVHLAREKSATSNKSAGIQSRRKKILDVYANVCGVVEGLSPTELPFDCLEKTSRMLSSTYNSEKAVVKTWRHLAESFGLKRDEIGGMTDGMQLFDRISTAGYSIPELLTKLVQIERLDAVESLCADILEWAGVVPPASQPHAAS
[5]
  binding activity by flow cytometry (FCM), Antibody +: 61
[6]
  binding activity by flow cytometry (FCM), Antibody +: 37
[7]
  internalization activity level: − (less than 5%)
[8]
  internalization activity level: ++ (15% or more and less than 25%)
